The subject of the assay is microorganisms. As to the kind of experiment: Targeting peptide binding to target microorganisms (Tables 3, 10, 12). Particulars: microorganism(s) the targeting peptide binds; binding in aqueous buffers varied with peptide solubility, preferably 1x PBS.

The record followed here is patent publication US20110039763A1, “TARGETED ANTIMICROBIAL MOIETIES” (C3 JIAN, INC., priority 2009, published 2011).

Entries after “also recorded” stand apart in the source; their conditions may differ.

As to “PF-304 (LVKDTSDIKNDLNNIEIVTSKNSNDIAKLKSVK; Peptide with targeting and/or antimicrobial activity)”, the “Target(s)” value was “S. mutans”.

In the case of “PF-308 (QQYLILDRM; Peptide with targeting and/or antimicrobial activity)”, the “Target(s)” value is “C. difficile”.

“PF-309 (GIPGMTAAPAEENEQEENADEE; Peptide with targeting and/or antimicrobial activity)”: the “Target(s)” value is given as “S. mutans; also recorded: E. coli”.

As for “PF-311 (IDAVTKKKTTCMIRAPTKIPIAHTDN; Peptide with targeting and/or antimicrobial activity)”, the “Target(s)” value is “C. difficile”.

In the case of “PF-314 (ECLKKAIKSKALNKAFKIDVPDEVYDNLLMELEEYEK; Peptide with targeting and/or antimicrobial activity)”, the “Target(s)” value is listed as “S. mutans”.

Turning to “PF-317 (LILVSDI; Peptide with targeting and/or antimicrobial activity)”, the “Target(s)” value is “S. mutans”.

For “PF-320 (DSGYYALLENKEERVVWDGEVVANNIFNNLWIVVNKVKTG; Peptide with targeting and/or antimicrobial activity)”, the “Target(s)” value is given as “S. mutans; also recorded: E. coli”.

Turning to “PF-323 (ARESIEKSHVPVDATIVGVVDSFEVFDE; Peptide with targeting and/or antimicrobial activity)”, the “Target(s)” value is recorded as “S. mutans”.

Take “PF-324 (HFSLL; Peptide with targeting and/or antimicrobial activity)”: the “Target(s)” value was “C. difficile”.

On to “PF-325 (LTIDEKLRNHR; Peptide with targeting and/or antimicrobial activity)”, for which the “Target(s)” value is on record as “S. mutans; also recorded: E. coli”.

As for “PF-326 (VIVGNLGAQKEKRNDTPISAKKDIMGDKTVRVRADLHH; Peptide with targeting and/or antimicrobial activity)”, the “Target(s)” value was “S. mutans; also recorded: E. coli”.

Regarding “PF-328 (NGNEKAFSEVENLVK; Peptide with targeting and/or antimicrobial activity)”, the “Target(s)” value is given as “S. mutans”.

For the substance “PF-329 (IGILFDKSVRKY; Peptide with targeting and/or antimicrobial activity)”, the “Target(s)” value was “S. epidermidis”.

As to “PF-333 (YMTKKLVEMAEQQMAGKSNR; Peptide with targeting and/or antimicrobial activity)”, the “Target(s)” value was “S. mutans”.

As to “PF-334 (QQYLILDRM; Peptide with targeting and/or antimicrobial activity)”, the “Target(s)” value is reported as “S. epidermidis; also recorded: C. difficile”.

As for “PF-337 (YMTKKLVEMAERQMAGK; Peptide with targeting and/or antimicrobial activity)”, the “Target(s)” value is listed as “S. epidermidis”.

For “PF-338 (KGTSCPDQLSKAIRQSI; Peptide with targeting and/or antimicrobial activity)”, the “Target(s)” value is recorded as “S. mutans”.

With “PF-340 (VKDVLLELFNKIIGA; Peptide with targeting and/or antimicrobial activity)”, the “Target(s)” value is “S. mutans; also recorded: E. coli”.

As to “PF-348 (ESASAAEWYNPNMNVKKAICMG; Peptide with targeting and/or antimicrobial activity)”, the “Target(s)” value is given as “B. subtilis; also recorded: E. coli; also recorded: P. aeruginosa; also recorded: C. albicans; also recorded: E. faecalis; also recorded: C. jejuni”.

Take “PF-351 (YLFFKGKKVAEEEATKDEVKR; Peptide with targeting and/or antimicrobial activity)”: the “Target(s)” value is recorded as “S. mutans”.

With “PF-352 (RVKKIG; Peptide with targeting and/or antimicrobial activity)”, the “Target(s)” value is “C. jeikeium”.

On to “PF-359 (MTVMEDPGSEQRNKIQSPMKGEDFSALFGR; Peptide with targeting and/or antimicrobial activity)”, for which the “Target(s)” value is “S. epidermidis and B. fragilis and P. aeruginosa and C. albicans and MRSA and E. faecalis and C. jeikeium”.

As for “PF-361 (NQVTEGIRLLVE; Peptide with targeting and/or antimicrobial activity)”, the “Target(s)” value is reported as “S. epidermidis; also recorded: E. coli; also recorded: E. faecalis; also recorded: C. jejuni”.

With “PF-364 (LVNGIKI; Peptide with targeting and/or antimicrobial activity)”, the “Target(s)” value is “S. epidermidis; also recorded: B. fragilis; also recorded: P. aeruginosa; also recorded: C. jeikeium; also recorded: C. jejuni”.

As to “PF-365 (LYKQKIQLEEELEKLKDDRQ; Peptide with targeting and/or antimicrobial activity)”, the “Target(s)” value is given as “S. epidermidis; also recorded: B. subtilis; also recorded: B. fragilis; also recorded: P. aeruginosa; also recorded: C. albicans”.

Take “PF-367 (TKTPGTFTPGTGIQKTAVPL; Peptide with targeting and/or antimicrobial activity)”: the “Target(s)” value is reported as “B. subtilis”.

Consider “PF-368 (MLKQTA; Peptide with targeting and/or antimicrobial activity)”, for which the “Target(s)” value is on record as “C. jeikeium; also recorded: C. jejuni”.

Regarding “PF-371 (TFIYNEF; Peptide with targeting and/or antimicrobial activity)”, the “Target(s)” value is “S. epidermidis; also recorded: B. fragilis; also recorded: C. jejuni”.

Turning to “PF-372 (KKQDKRIEDKYKRMKKGD; Peptide with targeting and/or antimicrobial activity)”, the “Target(s)” value was “C. jeikeium; also recorded: C. jejuni”.

On to “PF-384 (HISKERFEAY; Peptide with targeting and/or antimicrobial activity)”, for which the “Target(s)” value is “E. faecalis; also recorded: C. jeikeium; also recorded: C. jejuni”.

Take “PF-388 (ITPLLDEIGKVCIDKISK; Peptide with targeting and/or antimicrobial activity)”: the “Target(s)” value was “E. faecalis; also recorded: C. jeikeium; also recorded: C. jejuni”.

In the case of “PF-400 (VIAWKFRNKFENSGV; Peptide with targeting and/or antimicrobial activity)”, the “Target(s)” value is “S. epidermidis; also recorded: E. coli; also recorded: S. pneumoniae; also recorded: E. faecalis; also recorded: C. jeikeium”.

“PF-402 (FIDVLKSKINEFLN; Peptide with targeting and/or antimicrobial activity)”: the “Target(s)” value is “S. epidermidis; also recorded: P. aeruginosa; also recorded: E. faecalis; also recorded: C. jejuni”.

As for “PF-409 (DLVQSILSEFKKSG; Peptide with targeting and/or antimicrobial activity)”, the “Target(s)” value was “S. epidermidis and MRSA and C. jeikeium and C. jejuni”.

For “PF-412 (TSGWLGQLEQ; Peptide with targeting and/or antimicrobial activity)”, the “Target(s)” value is listed as “M. luteus; also recorded: E. coli; also recorded: C. albicans; also recorded: C. jeikeium; also recorded: C. jejuni”.

With “PF-435 (MSRWDGHSDKGEAPAGKPPMHGFGLNGENK; Peptide with targeting and/or antimicrobial activity)”, the “Target(s)” value is on record as “C. jeikeium”.

In the case of “PF-436 (KKHVLVGKQEKNG; Peptide with targeting and/or antimicrobial activity)”, the “Target(s)” value is given as “C. jeikeium”.
